Experimental data as given in patent publication US10584159B2, “Renilla based biosensors for monitoring biomolecule localization and trafficking in cells” (The Royal Institution for the Advancement of …, priority 2014, dated 2020).
No end group written: not given here.

Molecular target: T1, AT1R (Homo sapiens, UniProt P30556)
T1 construct: expressed in transfected cells; host or cells: HEK293SL
T1 sequence (P30556 1-359): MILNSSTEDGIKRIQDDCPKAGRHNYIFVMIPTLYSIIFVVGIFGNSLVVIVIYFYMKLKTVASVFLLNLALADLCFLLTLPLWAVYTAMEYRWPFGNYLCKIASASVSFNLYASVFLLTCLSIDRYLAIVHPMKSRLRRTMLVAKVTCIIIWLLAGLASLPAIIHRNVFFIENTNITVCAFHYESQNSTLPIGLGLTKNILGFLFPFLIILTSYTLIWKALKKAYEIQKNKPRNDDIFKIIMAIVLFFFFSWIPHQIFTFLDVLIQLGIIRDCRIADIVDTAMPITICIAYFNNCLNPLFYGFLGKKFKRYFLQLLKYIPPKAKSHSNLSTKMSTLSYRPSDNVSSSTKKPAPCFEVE
Assay: β-arrestin2 targeting to endosomes BRET (AT1R/βarr2-RlucII/rGFP-endofinFYVE)
Assay type: cell-based
Details: 40 min
Description: BRET measurements for FIGS. 1B to 9D, 25D to 25F. The following day of transfection, cells were detached and replated onto poly-ornithine coated white 96-well plate at a density of 25,000 cells per well. The next day, cells were washed once with pre-warmed Tyrode's buffer (140 mM NaCl, 2.7 mM KCl, 1 mM CaCl2, 12 mM NaHCO3, 5.6 mM D-glucose, 0.5 mM MgCl2, 0.37 mM NaH2PO4, 25 mM HEPES, pH 7.4), and then stimulated with either various concentrations of ligands in Tyrode's buffer for the indicated time, or single concentration of ligands for various times at 37° C. For recycling experiment, after stimulating the cells with the ligands for 30 min at 37° C., they were washed either three times with ice-cold Tyrode's buffer or once with Tyrode's buffer/three times with acid (50 mM sodium citrate, pH 4.0)/two times with Tyrode's buffer. All the washing steps were performed on ice. Cells were then further incubated with Tyrode's buffer at 37° C. in a water bath for 45 min. The cell-permeable substrate, coelenterazine 400a was added at a final concentration of 5 μM in Tyrode's buffer 3-4 min before BRET measurements. Measurements were performed by using Synergy2 (BioTek®) microplate reader with a filter set of 410±80 nm and 515±30 nm for detecting the RlucII Renilla luciferase (donor) and GFP10 or rGFP (acceptor) light emissions, respectively. The BRET signal was determined by calculating the ratio of the light intensity emitted by the GFP10 or rGFP over the light intensity emitted by the RlucII. All the BRET measurements were performed in triplicate at 37° C.

For “DRVYVHPG [DVG, [Asp^1,Val^5, Gly^8]-AngII]”, the “β-arrestin2 trafficking to endosomes with receptors, compared to AngII” value was “weakly promoted”.
